In patent publication US20260241012A1, “1,8-NAPHTHYRIDIN-2-ONE HETEROBIFUNCTIONAL BCL6 DEGRADERS” (Treeline Biosciences, Inc., priority 2022, published 2026):

Target: T1, N-terminal HiBiT tagged BCL6 (Homo sapiens, UniProt P41182)
T1 construct: expressed in transfected cells; host or cells: HT1080 (ATCC CCL-121), stably transduced with lentivirus pLV-UBC-N-HiBiT-BCL6-PGK-puro
Test: HiBiT based degradation assay
Assay type: cell-based
Conditions: HT1080 cells expressing N-terminal HiBiT tagged BCL6, 5 hours of incubation; for Ymin (5 hr): BCL6 degradation normalized with DMSO control; for DC50: four-parameter logistic model, read-out: EC50 (5 hr)
Method in brief: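 Degradation measured by luminescence from the Nano-Glo HiBiT lytic reagent (15 min, room temperature), normalized to DMSO controls and fitted to a four-parameter curve.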

Structure (SMILES)	Ymin (5 hr)	DC50 [nM]
CNC(=O)COc1cc2cc(Nc3nc(N4C[C@@H]5[C@@H](CN6CCN(c7cccc8c(C9CCC(=O)NC9=O)nn(C)c78)CC6)[C@@H]5C4)ncc3Cl)cnc2n(C)c1=O (stereo partly drawn) [Compound 136a, 2-((6-((5-chloro-2-((1R,5S,6s)-6-((4-(3-(2,6-dioxopiperidin-3-yl)-1-methyl-1H-indazol-7-yl)piperazin-1-yl)methyl)-3-azabicyclo[3.1.0]hexan-3-yl)pyrimidin-4-yl)amino)-1-methyl-2-oxo-1,2-dihydro-1,8-naphthyridin-3-yl)oxy)-N-methylacetamide]	++++ (Ymin < 30%)	< 10
CNC(=O)COc1cc2cc(Nc3nc(N4CC5(CCC(Nc6cccc7c(C8CCC(=O)NC8=O)nn(C)c67)CC5)C4)ncc3Cl)cnc2n(C)c1=O (centres unmarked) [Compound 137, 2-((6-((5-chloro-2-(7-((3-(2,6-dioxopiperidin-3-yl)-1-methyl-1H-indazol-7-yl)amino)-2-azaspiro[3.5]nonan-2-yl)pyrimidin-4-yl)amino)-1-methyl-2-oxo-1,2-dihydro-1,8-naphthyridin-3-yl)oxy)-N-methylacetamide]	++++ (Ymin < 30%)	< 10
CNC(=O)COc1cc2cc(Nc3nc(N4CC5(CCC(Nc6ccc7c(C8CCC(=O)NC8=O)nn(C)c7c6)CC5)C4)ncc3Cl)cnc2n(C)c1=O (centres unmarked) [Compound 138, 2-((6-((5-chloro-2-(7-((3-(2,6-dioxopiperidin-3-yl)-1-methyl-1H-indazol-6-yl)amino)-2-azaspiro[3.5]nonan-2-yl)pyrimidin-4-yl)amino)-1-methyl-2-oxo-1,2-dihydro-1,8-naphthyridin-3-yl)oxy)-N-methylacetamide]	++++ (Ymin < 30%)	< 10
CNC(=O)COc1cc2cc(Nc3nc(N4CCC(CC5CCN(c6cccc7c(C8CCC(=O)NC8=O)nn(C)c67)CC5)CC4)ncc3Cl)cnc2n(C)c1=O (centres unmarked) [Compound 139, 2-((6-((5-chloro-2-(4-((1-(3-(2,6-dioxopiperidin-3-yl)-1-methyl-1H-indazol-7-yl)piperidin-4-yl)methyl)piperidin-1-yl)pyrimidin-4-yl)amino)-1-methyl-2-oxo-1,2-dihydro-1,8-naphthyridin-3-yl)oxy)-N-methylacetamide]	+++ (30% ≤ Ymin < 50%)	100 to 1000
CNC(=O)COc1cc2cc(Nc3nc(N4CCC(CC5CCN(c6ccc7c(C8CCC(=O)NC8=O)nn(C)c7c6)CC5)CC4)ncc3Cl)cnc2n(C)c1=O (centres unmarked) [Compound 140, 2-((6-((5-chloro-2-(4-((1-(3-(2,6-dioxopiperidin-3-yl)-1-methyl-1H-indazol-6-yl)piperidin-4-yl)methyl)piperidin-1-yl)pyrimidin-4-yl)amino)-1-methyl-2-oxo-1,2-dihydro-1,8-naphthyridin-3-yl)oxy)-N-methylacetamide]	+++ (30% ≤ Ymin < 50%)	< 10
CNC(=O)COc1cc2cc(Nc3nc(N4CCN(CC5CCN(c6cccc7c(C8CCC(=O)NC8=O)nn(C)c67)CC5)[C@@H](C(F)(F)F)C4)ncc3Cl)cnc2n(C)c1=O (stereo partly drawn) [Compound 141a, 2-((6-((5-chloro-2-((3R)-4-((1-(3-(2,6-dioxopiperidin-3-yl)-1-methyl-1H-indazol-7-yl)piperidin-4-yl)methyl)-3-(trifluoromethyl)piperazin-1-yl)pyrimidin-4-yl)amino)-1-methyl-2-oxo-1,2-dihydro-1,8-naphthyridin-3-yl)oxy)-N-methylacetamide]	+++ (30% ≤ Ymin < 50%)	10 to 100
CNC(=O)COc1cc2cc(Nc3nc(N4CC5(CCC(Oc6cccc7c(C8CCC(=O)NC8=O)nn(C)c67)CC5)C4)ncc3Cl)cnc2n(C)c1=O (centres unmarked) [Compound 142, 2-((6-((5-chloro-2-(7-((3-(2,6-dioxopiperidin-3-yl)-1-methyl-1H-indazol-7-yl)oxy)-2-azaspiro[3.5]nonan-2-yl)pyrimidin-4-yl)amino)-1-methyl-2-oxo-1,2-dihydro-1,8-naphthyridin-3-yl)oxy)-N-methylacetamide]	+++ (30% ≤ Ymin < 50%)	< 10
CNC(=O)COc1cc2cc(Nc3nc(N4CCC(CN5C6CCC5CC(c5cccc7c(C8CCC(=O)NC8=O)nn(C)c57)C6)CC4)ncc3Cl)cnc2n(C)c1=O [Compound 143, 2-((6-((5-chloro-2-(4-(((1R,3s,5S)-3-(3-(2,6-dioxopiperidin-3-yl)-1-methyl-1H-indazol-7-yl)-8-azabicyclo[3.2.1]octan-8-yl)methyl)piperidin-1-yl)pyrimidin-4-yl)amino)-1-methyl-2-oxo-1,2-dihydro-1,8-naphthyridin-3-yl)oxy)-N-methylacetamide]	++++ (Ymin < 30%)	< 10

Results, then the molecule that gave them:

Ymin (5 hr)	DC50 [nM]	Structure (SMILES)
++++ (Ymin < 30%)	< 10	CNC(=O)COc1cc2cc(Nc3nc(N4CC[C@@H](CNc5ccc6c(C7CCC(=O)NC7=O)nn(C)c6c5)C4)ncc3Cl)cnc2n(C)c1=O (stereo partly drawn) [Compound 123b, 2-((6-((5-chloro-2-((3S)-3-(((3-(2,6-dioxopiperidin-3-yl)-1-methyl-1H-indazol-6-yl)amino)methyl)pyrrolidin-1-yl)pyrimidin-4-yl)amino)-1-methyl-2-oxo-1,2-dihydro-1,8-naphthyridin-3-yl)oxy)-N-methylacetamide]
++++ (Ymin < 30%)	< 10	CNC(=O)COc1cc2cc(Nc3nc(N4CCC(CN5CCN(c6cccc7c(C8CCC(=O)NC8=O)nn(C)c67)CC5)CC4)ncc3Cl)cnc2n(C)c1=O (centres unmarked) [Compound 132, 2-((6-((5-chloro-2-(4-((4-(3-(2,6-dioxopiperidin-3-yl)-1-methyl-1H-indazol-7-yl)piperazin-1-yl)methyl)piperidin-1-yl)pyrimidin-4-yl)amino)-1-methyl-2-oxo-1,2-dihydro-1,8-naphthyridin-3-yl)oxy)-N-methylacetamide]
++++ (Ymin < 30%)	< 10	CNC(=O)COc1cc2cc(Nc3nc(N4CCC(CN5CCN(c6ccc7c(C8CCC(=O)NC8=O)nn(C)c7c6)CC5)CC4)ncc3Cl)cnc2n(C)c1=O (centres unmarked) [Compound 133, 2-((6-((5-chloro-2-(4-((4-(3-(2,6-dioxopiperidin-3-yl)-1-methyl-1H-indazol-6-yl)piperazin-1-yl)methyl)piperidin-1-yl)pyrimidin-4-yl)amino)-1-methyl-2-oxo-1,2-dihydro-1,8-naphthyridin-3-yl)oxy)-N-methylacetamide]
+++ (30% ≤ Ymin < 50%)	< 10	CNC(=O)COc1cc2cc(Nc3nc(N4CCN(CC5CCN(c6ccc7c(C8CCC(=O)NC8=O)nn(C)c7c6)CC5)CC4)ncc3F)cnc2n(C)c1=O (centres unmarked) [Compound 134, 2-((6-((2-(4-((1-(3-(2,6-dioxopiperidin-3-yl)-1-methyl-1H-indazol-6-yl)piperidin-4-yl)methyl)piperazin-1-yl)-5-fluoropyrimidin-4-yl)amino)-1-methyl-2-oxo-1,2-dihydro-1,8-naphthyridin-3-yl)oxy)-N-methylacetamide]
++++ (Ymin < 30%)	< 10	CNC(=O)COc1cc2cc(Nc3nc(N4CCN(CC5CCN(c6cccc7c(C8CCC(=O)NC8=O)nn(C)c67)CC5)CC4)ncc3F)cnc2n(C)c1=O (centres unmarked) [Compound 135, 2-((6-((2-(4-((1-(3-(2,6-dioxopiperidin-3-yl)-1-methyl-1H-indazol-7-yl)piperidin-4-yl)methyl)piperazin-1-yl)-5-fluoropyrimidin-4-yl)amino)-1-methyl-2-oxo-1,2-dihydro-1,8-naphthyridin-3-yl)oxy)-N-methylacetamide]
